The experiment relates to P388. Briefly: Actual inhibitory activity in P388 leukemia cells by CoMFA analysis, expressed as log 1/IC50. Format: functional, cell-based. The note with it: Mus musculus, P388, read-out: Log 1/IC50 (converted).

Turning to `CC(=O)O[C@H]1C[C@@]2(O)[C@@H](OC(=O)c3ccccc3)[C@@H]3[C@]4(OC(C)=O)CO[C@@H]4C[C@H](O)[C@@]3(C)[C@@H](O)[C@H](OC(C)=O)C(=C1C)C2(C)C`, the IC50 was 0.0525 µM.
The result for `C=C1[C@@H](O)C[C@H](OC(C)=O)[C@@]2(COC(=O)c3ccccc3)[C@@H](OC(C)=O)[C@H](OC(C)=O)[C@]3(O)[C@@]4(C)CO[C@]3(C)C(=O)C[C@H]4[C@@H](OC(C)=O)[C@H]12` [TAXININ M] reads 0.0269 µM.
Under `C=C1[C@@H](OC(=O)/C=C/c2ccccc2)C[C@H](OC(C)=O)[C@@]2(C)[C@@H](OC(C)=O)[C@H](OC(C)=O)C3=C(C)C(=O)C[C@@H]([C@@H](OC(C)=O)[C@H]12)C3(C)C` stands 0.01 µM.
The result for `CC(=O)OC[C@H]1[C@H]2[C@H](O)[C@@H]3C[C@H](OC(C)=O)C(C)=C([C@@H](OC(C)=O)[C@H](OC(C)=O)[C@]2(C)[C@@H](OC(C)=O)C[C@@H]1OC(C)=O)C3(C)C` reads 0.0123 µM; that for `CC(=O)O[C@H]1C[C@@]2(O)[C@@H](OC(C)=O)[C@@H]3[C@@]4(CO4)[C@@H](OC(C)=O)C[C@H](OC(C)=O)[C@@]3(C)[C@@H](OC(C)=O)[C@H](OC(C)=O)C(=C1C)C2(C)C`, 0.01 µM; that for `CC(=O)O[C@@]12CO[C@@H]1C[C@H](O)[C@@]1(C)C(=O)[C@H](O)C3=C(C)[C@@H](OC(=O)[C@H](O)[C@@H](NC(=O)C4CCC4)c4ccccc4)C[C@@](O)([C@@H](OC(=O)c4ccccc4)[C@H]21)C3(C)C`, 0.0661 µM.
Turning to `CCCCCC(=O)N[C@@H](c1ccccc1)[C@@H](O)C(=O)O[C@H]1C[C@@]2(O)[C@@H](OC(=O)c3ccccc3)[C@@H]3[C@]4(OC(C)=O)CO[C@@H]4C[C@H](O)[C@@]3(C)C(=O)[C@@H](O)C(=C1C)C2(C)C`, the IC50 is 0.0892 µM.
Regarding `CC(=O)O[C@@]12CO[C@@H]1C[C@H](O)[C@]1(C)[C@@H]2[C@H](OC(=O)c2ccccc2)[C@]2(O)CC(=O)C(C)=C([C@@H](O)[C@@H]1O)C2(C)C`, the IC50 was 0.1 µM.
Regarding `C=C1[C@H]2C[C@]3(O)C[C@H](O)C(C)=C([C@@H](OC(C)=O)[C@H](OC(C)=O)[C@]2(C)[C@@H](OC(=O)c2ccccc2)C[C@@H]1O)C3(C)C`, the IC50 is 0.0251 µM.
In the case of `CCCCCC(=O)N[C@@H](c1ccccc1)[C@@H](O)C(=O)O[C@H]1C[C@@]2(O)[C@@H](OC(=O)c3ccccc3)[C@@H]3[C@]4(OC(C)=O)CO[C@@H]4C[C@H](O)[C@@]3(C)C(=O)[C@H](O)C(=C1C)C2(C)C` [10-DEACETYLTAXAYUNNANINE A], the IC50 is 0.0408 µM.
For `CCCCCCC(=O)N[C@@H](c1ccccc1)[C@@H](O)C(=O)O[C@H]1C[C@@]2(O)[C@@H](OC(=O)c3ccccc3)[C@@H]3[C@]4(OC(C)=O)CO[C@@H]4C[C@H](O)[C@@]3(C)C(=O)[C@H](OC(C)=O)C(=C1C)C2(C)C`, the IC50 is 0.0182 µM.
Regarding `CC(=O)O[C@@]12CO[C@@H]1C[C@H](O)[C@@]1(C)C(=O)[C@H](O)C3=C(C)[C@@H](OC(=O)[C@H](O)[C@@H](NC(=O)c4ccccc4)c4ccccc4)C[C@@](O)([C@@H](OC(=O)c4ccccc4)[C@H]21)C3(C)C`, the IC50 was 0.0427 µM.
Turning to `C=C1[C@@H](O)C[C@H](OC(C)=O)[C@@]2(C)[C@@H](OC(C)=O)[C@H](OC(C)=O)C3=C(C)C(=O)C[C@@H]([C@@H](OC(C)=O)[C@H]12)C3(C)C`, the IC50 is 0.0661 µM.
Turning to `CC(=O)O[C@H]1C[C@@]2(O)[C@@H](OC(=O)c3ccccc3)[C@@H]3[C@]4(OC(C)=O)CO[C@@H]4C[C@H](O)[C@@]3(C)[C@@H](O)[C@H](O)C(=C1C)C2(C)C`, the IC50 was 0.0289 µM.
The result for `C=C1[C@H]2C[C@@H]3C[C@H](OC(C)=O)C(C)=C([C@@H](OC(C)=O)[C@H](OC(C)=O)[C@]2(C)[C@@H](OC(C)=O)C[C@@H]1O)C3(C)C` reads 0.0437 µM; that for `C=C1[C@@H](OC(C)=O)CC[C@@]2(C)[C@@H](OC(C)=O)[C@H](OC(C)=O)C3=C(C)[C@@H](OC(C)=O)C[C@@H]([C@@H](OC(C)=O)[C@H]12)C3(C)C`, 0.0166 µM; that for `C=C1[C@@H](OC(=O)/C=C/c2ccccc2)CC[C@@]2(C)[C@@H](OC(C)=O)[C@H](OC(C)=O)C3=C(C)C(=O)C[C@@H]([C@@H](OC(C)=O)[C@H]12)C3(C)C`, 0.01 µM.
In the case of `CC(=O)O[C@H]1[C@@H]2[C@H](CO)[C@@H](OC(C)=O)C[C@H](OC(C)=O)[C@@]2(C)[C@@H](OC(C)=O)[C@H](OC(C)=O)C2=C(C)[C@@H](OC(C)=O)C[C@@H]1C2(C)C`, the IC50 was 0.0141 µM.
For `CC(=O)O[C@H]1C[C@H]2[C@@H](OC(C)=O)CC3C[C@](C)(C(=O)[C@H](O)C(=C1C)C2(C)C)[C@@H](O)C[C@@H]3OC(=O)/C=C/c1ccccc1`, the IC50 is 0.0479 µM.
The result for `C=C1[C@H]2C[C@@H]3CC(=O)C(C)=C([C@@H](OC(C)=O)[C@H](OC(C)=O)[C@]2(C)[C@@H](OC(C)=O)C[C@@H]1O)C3(C)C` reads 0.0123 µM; that for `CC(=O)O[C@H]1C(=O)[C@@]2(C)[C@H]([C@H](OC(=O)c3ccccc3)[C@]3(O)C[C@H](O)C(C)=C1C3(C)C)[C@]1(OC(C)=O)CO[C@@H]1C[C@@H]2O` [BACCATIN III], 0.0632 µM; that for `CCCCCC(=O)N[C@@H](c1ccccc1)[C@@H](O)C(=O)O[C@H]1C[C@@]2(O)[C@@H](OC(=O)c3ccccc3)[C@@H]3[C@]4(OC(C)=O)CO[C@@H]4C[C@H](O)[C@@]3(C)C(=O)[C@H](OC(C)=O)C(=C1C)C2(C)C` [TAXOL C], 0.0814 µM.
Under `C=C1[C@@H](OC(=O)/C=C/c2ccccc2)C[C@H](OC(C)=O)[C@@]2(C)[C@@H](OC(C)=O)[C@H](OC(C)=O)[C@]3(O)[C@@]4(C)CO[C@]3(C)C(=O)C[C@H]4[C@@H](OC(C)=O)[C@H]12` [TAXAGIFINE] stands 0.01 µM; under `C=C1[C@@H](O)C[C@H](OC(C)=O)[C@@]2(C)[C@@H](OC(C)=O)[C@H](OC(C)=O)C3=C(C)[C@@H](OC(C)=O)C[C@@H]([C@@H](OC(C)=O)[C@H]12)C3(C)C` [DECINNAMOYLTAXININE J], 0.0126 µM.
For the molecule `C=C1[C@H]2C[C@@H]3C[C@H](O)C(C)=C([C@@H](OC(C)=O)[C@H](OC(C)=O)[C@]2(C)[C@@H](OC(C)=O)C[C@@H]1O)C3(C)C`, the IC50 is 0.0632 µM.
Turning to `CC(=O)O[C@@H]1C2=C(C)C(=O)C[C@@](O)([C@@H](OC(=O)c3ccccc3)[C@@H]3[C@]4(OC(C)=O)CO[C@@H]4C[C@H](O)[C@@]3(C)[C@H]1O)C2(C)C`, the IC50 was 0.0479 µM.
Consider `CC(=O)O[C@H]1C(=O)[C@@]2(C)[C@H]([C@H](OC(=O)c3ccccc3)[C@]3(O)C[C@H](OC(=O)[C@H](O)[C@@H](NC(=O)c4ccccc4)c4ccccc4)C(C)=C1C3(C)C)[C@]1(OC(C)=O)CO[C@@H]1C[C@@H]2O` [PACLITAXEL], for which the IC50 is 0.0219 µM.

(Values after ChEMBL document CHEMBL1130530, “3D QSAR analysis of taxoids from Taxus cuspidata var. nana by comparative molecular field approach” (Bioorg Med Chem Lett, 1997).)
